Results published in patent publication US10017459B2, “β-substituted β-amino acids and analogs as chemotherapeutic agents and uses thereof” (Quadriga Biosciences, Inc., priority 2015, dated 2018).

Legend:
[1] = tested on: MV411; test: cells; assay type: cell-based; settings: Homo sapiens, MV4-11, read-out: IC50 (in vitro toxicity)
[2] = tested on: U266; test: cells; assay type: cell-based; settings: Homo sapiens, U-266, read-out: IC50 (in vitro toxicity)
[3] = tested on: HCT116; test: In vitro cytotoxicity, HCT116; assay type: cell-based; settings: Homo sapiens, HCT-116, read-out: IC50 (in vitro toxicity)
[4] = tested on: U251; test: cells; assay type: cell-based; settings: Homo sapiens, U-251, read-out: IC50 (in vitro toxicity)
[5] = tested on: 1334; test: In vitro cytotoxicity, 1334; assay type: cell-based; settings: read-out: IC50 (in vitro toxicity)
[6] = tested on: human bone marrow cells (erythroid and myeloid progenitors); test: In vitro bone marrow toxicity, colony forming cell assays; settings: 14 days in culture, methylcellulose media
[7] = tested on: KMS34; test: cells; assay type: cell-based; settings: KMS-34, read-out: IC50 (in vitro toxicity)
[8] = tested on: Mia-PaCa2; test: In vitro cytotoxicity, Mia-PaCa2; assay type: cell-based; settings: Homo sapiens, MIA PaCa-2, read-out: IC50 (in vitro toxicity)
[9] = tested on: 42MGBA; test: cells; assay type: cell-based; settings: read-out: IC50 (in vitro toxicity)
[10] = tested on: MDA-MB-231; test: Triple negative breast cancer study, IV dosing; assay type: in vivo, mouse; settings: IV once a week for 8 weeks
Method: The efficacy of compounds provided by the present disclosure was evaluated on a triple negative breast cancer xenograft model—MDA-MB-231. Human triple negative breast cancer cells were implanted into the flank of nude mice and the study was initiated after the volume of the tumors was 150 mm^3. The animals were IV dosed once a week for 8 weeks with either vehicle or 5 mg/kg of compound (5), or 20 mg/kg compound (7). The tumor volume, body weight, white blood cell count, and granulocyte count were determined during the study and 12 days after the final dose was administered.

[11] = tested on: MM1.S; test: cells; assay type: cell-based; settings: Homo sapiens, read-out: IC50 (in vitro toxicity)
[12] = tested on: Human prostate cancer PC3 cells; settings: mouse, in vivo
[13] = tested on: D283; test: cells; assay type: cell-based; settings: D283, read-out: IC50 (in vitro toxicity)
[14] = tested on: PC3; test: cells; assay type: cell-based; settings: Homo sapiens, PC-3, read-out: IC50 (in vitro toxicity)
[15] = tested on: MCF7; test: In vitro cytotoxicity, MCF7; assay type: cell-based; settings: Homo sapiens, MCF7, read-out: IC50 (in vitro toxicity)
[16] = tested on: HS27A; test: cells; assay type: cell-based; settings: HS-27A, read-out: IC50 (in vitro toxicity)
[17] = tested on: DBRTG; test: cells; assay type: cell-based; settings: read-out: IC50 (in vitro toxicity)
[18] = tested on: MDA-MB-231; test: cells; assay type: cell-based; settings: Homo sapiens, MDA-MB-231, read-out: IC50 (in vitro toxicity)
[19] = tested on: LLCPK cells conditionally expressing hLAT1
[20] = tested on: KMS11; test: cells; assay type: cell-based; settings: Homo sapiens, KMS-11, read-out: IC50 (in vitro toxicity)
[21] = tested on: mouse melanoma cells; test: Mouse melanoma efficacy in syngeneic mice

Molecule `Cc1ccc(N(CCCl)CCCl)cc1C[C@H](N)CC(=O)O` [Compound 5, (3S)-3-Amino-4-[5-[bis(2-chloroethyl)amino]-2-methyl-phenyl]butanoic Acid] has an IC50 [1] of under 100 µM, an IC50 [2] of under 100 µM and an IC50 [3] of under 100 µM. The IC50 [4] was under 100 µM, the IC50 [5] was under 100 µM and the “toxicity to bone marrow progenitor cells (BFU-E, CFU-GM, Total CFC)” value [6] was “melphalan is more toxic to bone marrow progenitor cells than compound (5)”. It also gave an IC50 [7] of over 100 µM, an IC50 [8] of under 100 µM and an IC50 [9] of under 100 µM. For the same molecule, the body weight [10] was “maintained weight”, the myelosuppression [10] was “not dectected” and the tumor growth suppression ([10]; nude mice, 5 mg/kg compound (5), 20 mg/kg compound (7)) was “dose-dependent tumor growth suppression”. For the same molecule, the IC50 [11] was under 100 µM, the body weight [12] was “maintained weight” and the myelosuppression [12] was “not dectected”. For the same molecule, the tumor growth suppression [12] was “dose-dependent tumor growth suppression”, the IC50 [13] was under 100 µM and the IC50 [14] was under 100 µM. It also gave an IC50 [15] of under 100 µM, an IC50 [16] of over 100 µM and an IC50 [17] of under 100 µM. The IC50 [18] was under 100 µM, the “IC50, S isomer compared with R isomer” value [19] was “significantly less than the IC50 of the R isomer” and the IC50 [20] was over 100 µM. The “tumor growth after end of dosing” value ([21]; after dosing ended at 12 days) was “Tumors began to grow”, the tumor growth ([21]; dosed daily for 12 days) was “suppressed tumor growth” and the “white blood cell count” value ([21]; during treatment) was “remained within the normal range”.
